Source: patent publication US20250194651A1, “STEVIOL GLYCOSIDE CONCENTRATES AND HIGHLY SOLUBLE STEVIOL GLYCOSIDES” (CARGILL, INCORPORATED, priority 2022, published 2025)
Where two headings read alike, the source gives them in different places.

Key:
[1] = Long-term solution stability (visual crystallization/precipitation time); assay type: physicochemical; conditions: for time until solution crashes out: solution of 1%
Experimental: (§1) Solutions were prepared by mixing one or more steviol glycoside component in purified water at ambient temperature. Solubility enhancers, preservatives, or ethanol were included only where expressly indicated and, when used, were added to the initial mixture prior to heating and dissolution. The mixtures were premixed and then subsequently heated via heat block or oven. Solutions took approximately one or two minutes to reach the target temperature, and then were maintained at the target temperature at least until complete dissolution of solids. Dissolution of solids was monitored visually during heating. After the heating period, fully dissolved solutions were permitted to cool to room temperature and were monitored for initial precipitation.
Solutions were further monitored for stability over periods of hours, days, weeks, and longer. Multiple techniques were utilized to evaluate stability. […] Solutions were also evaluated by recovering dissolved solids and then calculating percent recovery. If necessary, the solutions were filtered to remove undissolved material to assure that percent recovery reflected only dissolved steviol glycosides.
The rebaudioside M and A blend was further observed hourly for the first several hours, then monitored daily to evaluate long-term stability. Steviol glycoside binary blends in aqueous solvent (1%) were prepared from as an […].
Amounts of rebaudioside M and rebaudioside A in varying ratios were combined with purified water at room temperature and then heated to 85° C. with a heating block to effect dissolution. For example, for batches formulated to provide a concentration of about 10% DS, approximately 25 mg of each of rebaudioside M and rebaudioside A were dissolved in 500 μL of purified water. Samples were monitored until crystallization occurred or for at least 40 days. Solutions that remained clear and free of visible precipitation are identified in the tables below.
Steviol glycoside solutions of rebaudioside M and rebaudioside A were tested to determine if non-aqueous solvent was beneficial or detrimental to solution stability. Ingredients were combined in purified water at room temperature then heated to 85° C. with a heating block to effect dissolution. The solution was allowed to cool to ambient temperature, and then visually monitored for precipitation.

[2] = Aqueous solubility (background values); assay type: physicochemical; conditions: heating in near boiling water for 2 hours
[3] = Initial solubility in aqueous solution (visual dissolution on heating); assay type: physicochemical
Experimental: as §1
Various individual steviol glycosides were tested to evaluate initial solubility in aqueous solution as well as the long-term stability in solution. Ingredients were combined in purified water at room temperature then heated to 85° C. with a heating block to effect dissolution. […]

[4] = cited from earlier work
[5] = conventional formulations, aqueous solution at 25° C., WO 2017/120480 A1
[6] = 0.49% DS, after dissolution at 85° C.

C=C1C[C@@]23CC[C@H]4[C@@](C)(CCC[C@@]4(C)C(=O)O[C@@H]4O[C@H](CO)[C@@H](O)[C@H](O)[C@H]4O[C@@H]4O[C@H](CO)[C@@H](O)[C@H](O)[C@H]4O)[C@@H]2CC[C@]1(O[C@@H]1O[C@H](CO)[C@@H](O)[C@H](O[C@@H]2O[C@H](CO)[C@@H](O)[C@H](O)[C@H]2O)[C@H]1O[C@@H]1O[C@H](CO)[C@@H](O)[C@H](O)[C@H]1O)C3 [D, rebaudioside D]
Crystallization Time ([1]; 0.48% DS (Reb D), 0.5% DS (Total)): <2 h | Crystallization Time ([1]; 0.48% DS, after dissolution at 85° C.): <2 h | concentration temporarily dissolved [2]: 0.8 wt % | dissolution ([3]; 1% DS in water, heated to 85° C. for 20 minutes, cooled to room temperature (FIG. 1)): failed to dissolve | dissolution ([3]; 1% DS in water, heated to 85° C. for 20 minutes, cooled to room temperature (FIG. 1), listed as Reb D): cannot achieve dissolution | dissolved content in aqueous solution [4, 5]: about 0.05 wt %

C=C1C[C@@]23CC[C@H]4[C@@](C)(CCC[C@@]4(C)C(=O)O[C@@H]4O[C@H](CO)[C@@H](O)[C@H](O)[C@H]4O[C@@H]4O[C@H](CO)[C@@H](O)[C@H](O)[C@H]4O)[C@@H]2CC[C@]1(O[C@@H]1O[C@H](CO)[C@@H](O)[C@H](O)[C@H]1O[C@@H]1O[C@H](CO)[C@@H](O)[C@H](O)[C@H]1O)C3 [E, rebaudioside E]
Crystallization Time [1, 6]: 336 h

C=C1C[C@@]23CC[C@H]4[C@@](C)(CCC[C@@]4(C)C(=O)O[C@@H]4O[C@H](CO)[C@@H](O)[C@H](O)[C@H]4O[C@@H]4O[C@@H](C)[C@H](O)[C@@H](O)[C@H]4O)[C@@H]2CC[C@]1(O[C@@H]1O[C@H](CO)[C@@H](O)[C@H](O[C@@H]2O[C@H](CO)[C@@H](O)[C@H](O)[C@H]2O)[C@H]1O[C@@H]1O[C@H](CO)[C@@H](O)[C@H](O)[C@H]1O)C3 [J, rebaudioside J]
Crystallization Time ([1]; 0.53% DS, after dissolution at 85° C.): <2 h | Soluble? [3]: Y | dissolution ([3]; 1% solution, purified water, heated to 85° C.): failed to dissolve

C=C1C[C@@]23CC[C@H]4[C@@](C)(CCC[C@@]4(C)C(=O)O[C@@H]4O[C@H](CO)[C@@H](O)[C@H](O[C@@H]5O[C@H](CO)[C@@H](O)[C@H](O)[C@H]5O)[C@H]4O[C@@H]4O[C@H](CO)[C@@H](O)[C@H](O)[C@H]4O)[C@@H]2CC[C@]1(O[C@@H]1O[C@H](CO)[C@@H](O)[C@H](O[C@@H]2O[C@H](CO)[C@@H](O)[C@H](O)[C@H]2O)[C@H]1O[C@@H]1O[C@H](CO)[C@@H](O)[C@H](O)[C@H]1O)C3 [M (RM01), rebaudioside M]
Crystallization Time ([1]; 0.33% DS, after dissolution at 85° C.): <72 h | Soluble? [3]: Y

C=C1C[C@@]23CC[C@H]4[C@@](C)(CCC[C@@]4(C)C(=O)O[C@@H]4O[C@H](CO)[C@@H](O)[C@H](O[C@@H]5O[C@H](CO)[C@@H](O)[C@H](O)[C@H]5O)[C@H]4O[C@@H]4O[C@@H](C)[C@H](O)[C@@H](O)[C@H]4O)[C@@H]2CC[C@]1(O[C@@H]1O[C@H](CO)[C@@H](O)[C@H](O[C@@H]2O[C@H](CO)[C@@H](O)[C@H](O)[C@H]2O)[C@H]1O[C@@H]1O[C@H](CO)[C@@H](O)[C@H](O)[C@H]1O)C3 [N, rebaudioside N]
Crystallization Time [1, 6]: <1 h | Soluble? [3]: Y

C=C1C[C@@]23CC[C@H]4[C@@](C)(CCC[C@@]4(C)C(=O)O[C@@H]4O[C@H](CO)[C@@H](O)[C@H](O)[C@H]4O)[C@@H]2CC[C@]1(O[C@@H]1O[C@H](CO)[C@@H](O)[C@H](O[C@@H]2O[C@H](CO)[C@@H](O)[C@H](O)[C@H]2O)[C@H]1O[C@@H]1O[C@H](CO)[C@@H](O)[C@H](O)[C@H]1O)C3 [rebaudioside A]
appearance (FIG. 3, bottom) ([1]; about 10% DS, only rebaudioside A): intense precipitation | time until solution crashes out [1]: ≤ 72 h | dissolved content in aqueous solution ([4]; purified, in water at 25° C., WO 2012/082587 A2): about 0.8 wt %

C=C1C[C@@]23CC[C@H]4[C@@](C)(CCC[C@@]4(C)C(=O)O[C@@H]4O[C@H](CO)[C@@H](O)[C@H](O[C@@H]5O[C@H](CO)[C@@H](O)[C@H](O)[C@H]5O)[C@H]4O[C@@H]4O[C@H](CO)[C@@H](O)[C@H](O)[C@H]4O)[C@@H]2CC[C@]1(O[C@@H]1O[C@H](CO)[C@@H](O)[C@H](O[C@@H]2O[C@H](CO)[C@@H](O)[C@H](O)[C@H]2O)[C@H]1O[C@@H]1O[C@H](CO)[C@@H](O)[C@H](O)[C@H]1O)C3 [rebaudioside M]
time until solution crashes out [1]: less than an hour | dissolved content in aqueous solution [4, 5]: about 0.1 wt % | dissolved concentration in aqueous solution ([4]; room temperature, freeze or spray dried, WO '480, stability over time not reported): 0.5 wt %

rebaudioside B
Crystallization Time ([1]; 0.47% DS, heated to 85° C.): Immediate
